Measurements reported in ChEMBL document CHEMBL3351907, “Design, synthesis and biological evaluation of benzyl 2-(1H-imidazole-1-yl) pyrimidine analogues as selective and potent Raf inhibitors” (Bioorg Med Chem Lett, 2014).

Experiments:
[1] = molecular target: Aurora kinase A (Homo sapiens) (UniProt O14965); experiment: Inhibition of Aurora A (unknown origin) at 10 uM
[2] = molecular target: Tyrosine-protein kinase BTK (Homo sapiens) (UniProt Q06187); experiment: Inhibition of BTK (unknown origin) at 10 uM
[3] = molecular target: T1, Mitogen-activated protein kinase 14 (Homo sapiens, UniProt Q16539); experiment: Inhibition of P38a/MAPK14 (unknown origin)
[4] = molecular target: Glycogen synthase kinase-3 beta (Homo sapiens) (UniProt P49841); experiment: Inhibition of GSK3b (unknown origin) at 10 uM
[5] = molecular target: ALK tyrosine kinase receptor (Homo sapiens) (UniProt Q9UM73); experiment: Inhibition of ALK (unknown origin) at 10 uM
[6] = molecular target: Tyrosine-protein kinase Lck (Homo sapiens) (UniProt P06239); experiment: Inhibition of LCK (unknown origin) at 10 uM
[7] = molecular target: Receptor-type tyrosine-protein kinase FLT3 (Homo sapiens) (UniProt P36888); experiment: Inhibition of FLT3 (unknown origin) at 10 uM
[8] = molecular target: Proto-oncogene tyrosine-protein kinase ROS (Homo sapiens) (UniProt P08922); experiment: Inhibition of ROS/ROS1 (unknown origin) at 10 uM
[9] = molecular target: T2, RAF proto-oncogene serine/threonine-protein kinase (Homo sapiens, UniProt P04049); experiment: Inhibition of cRAF1 (unknown origin) at 10 uM
[10] = molecular target: Serine/threonine-protein kinase PLK1 (Homo sapiens) (UniProt P53350); experiment: Inhibition of PLK1 (unknown origin) at 10 uM
[11] = molecular target: T2, RAF proto-oncogene serine/threonine-protein kinase; experiment: Inhibition of RAF1 (unknown origin) at 10 uM
Homo sapiens = species on record: Homo sapiens; experiment: Inhibition of PKA (unknown origin) at 10 uM
[12] = molecular target: Epidermal growth factor receptor (Homo sapiens) (UniProt P00533); experiment: Inhibition of EGFR (unknown origin) at 10 uM
[13] = molecular target: Tyrosine-protein kinase ABL1 (Homo sapiens) (UniProt P00519); experiment: Inhibition of ABL1 (unknown origin) at 10 uM
[14] = molecular target: Insulin-like growth factor 1 receptor (Homo sapiens) (UniProt P08069); experiment: Inhibition of IGF1R (unknown origin) at 10 uM
[15] = molecular target: T3, Serine/threonine-protein kinase B-raf (Homo sapiens, UniProt P15056); experiment: Inhibition of BRAF (unknown origin)
[16] = molecular target: Macrophage colony-stimulating factor 1 receptor (Homo sapiens) (UniProt P07333); experiment: Inhibition of FMS (unknown origin) at 10 uM
[17] = molecular target: Cyclin-dependent kinase 1/cyclin B1 (Homo sapiens) (UniProt P06493+P14635); experiment: Inhibition of CDK1/cyclin B (unknown origin) at 10 uM; type: protein-complex assay
[18] = molecular target: Tyrosine-protein kinase Lyn (Homo sapiens) (UniProt P07948); experiment: Inhibition of LYN (unknown origin) at 10 uM
[19] = molecular target: T3, Serine/threonine-protein kinase B-raf; settings: 10 uM
Description: Inhibition of BRAF (unknown origin) at 10 uM

[20] = molecular target: Tyrosine-protein kinase SYK (Homo sapiens) (UniProt P43405); experiment: Inhibition of SYK (unknown origin) at 10 uM
[21] = molecular target: RAC-alpha serine/threonine-protein kinase (Homo sapiens) (UniProt P31749); experiment: Inhibition of AKT1 (unknown origin) at 10 uM
[22] = Cytotoxicity against human U937 cells assessed as cell viability after 24 hrs by MTT assay; type: functional; settings: U-937, 24 h
[23] = test system: Serine/threonine-protein kinase B-raf (Homo sapiens), P15056 [V600E]; settings: 10 uM
Description: Inhibition of BRAF V599E mutant (unknown origin) at 10 uM

[24] = molecular target: Mitogen-activated protein kinase 3 (Homo sapiens) (UniProt P27361); experiment: Inhibition of ERK1 (unknown origin) at 10 uM
[25] = molecular target: Fibroblast growth factor receptor 3 (Homo sapiens) (UniProt P22607); experiment: Inhibition of FGFR3 (unknown origin) at 10 uM
[26] = molecular target: Proto-oncogene tyrosine-protein kinase Src (Homo sapiens) (UniProt P12931); experiment: Inhibition of c-Src (unknown origin) at 10 uM
[27] = molecular target: Hepatocyte growth factor receptor (Homo sapiens) (UniProt P08581); experiment: Inhibition of c-MET (unknown origin) at 10 uM
[28] = molecular target: Serine/threonine-protein kinase mTOR (Homo sapiens) (UniProt P42345); experiment: Inhibition of mTOR/FRAP1 (unknown origin) at 10 uM
[29] = molecular target: Tyrosine-protein kinase JAK3 (Homo sapiens) (UniProt P52333); experiment: Inhibition of JAK3 (unknown origin) at 10 uM
[30] = molecular target: Mitogen-activated protein kinase 10 (Homo sapiens) (UniProt P53779); experiment: Inhibition of JNK3 (unknown origin) at 10 uM
[31] = molecular target: Serine/threonine-protein kinase B-raf (Homo sapiens, UniProt P15056, V600E); experiment: Inhibition of BRAF V599E mutant (unknown origin)
[32] = Cytotoxicity against human A375P cells assessed as cell viability after 24 hrs by MTT assay; type: functional
[33] = molecular target: T1, Mitogen-activated protein kinase 14; experiment: Inhibition of P38a/MAPK14 (unknown origin) at 10 uM
[34] = molecular target: Focal adhesion kinase 1 (Homo sapiens) (UniProt Q05397); experiment: Inhibition of FAK/PTK2 (unknown origin) at 10 uM
[35] = molecular target: Macrophage-stimulating protein receptor (Homo sapiens) (UniProt Q04912); experiment: Inhibition of RON/MST1R (unknown origin) at 10 uM
[36] = molecular target: Mast/stem cell growth factor receptor Kit (Homo sapiens) (UniProt P10721); experiment: Inhibition of c-Kit (unknown origin) at 10 uM
[37] = molecular target: Dual specificity mitogen-activated protein kinase kinase 1 (Homo sapiens) (UniProt Q02750); experiment: Inhibition of MEK1 (unknown origin) at 10 uM

T1 sequence (Q16539 whole entry): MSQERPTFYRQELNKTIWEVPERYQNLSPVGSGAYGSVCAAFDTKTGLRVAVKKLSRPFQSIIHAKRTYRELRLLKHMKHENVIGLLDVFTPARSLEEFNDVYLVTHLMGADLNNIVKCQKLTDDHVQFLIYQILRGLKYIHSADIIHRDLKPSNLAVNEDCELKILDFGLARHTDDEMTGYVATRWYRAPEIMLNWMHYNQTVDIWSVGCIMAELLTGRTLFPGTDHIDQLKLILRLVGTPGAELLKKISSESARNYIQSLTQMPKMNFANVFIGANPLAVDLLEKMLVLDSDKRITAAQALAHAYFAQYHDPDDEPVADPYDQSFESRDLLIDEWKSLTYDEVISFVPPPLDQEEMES
T3 sequence (P15056 whole entry): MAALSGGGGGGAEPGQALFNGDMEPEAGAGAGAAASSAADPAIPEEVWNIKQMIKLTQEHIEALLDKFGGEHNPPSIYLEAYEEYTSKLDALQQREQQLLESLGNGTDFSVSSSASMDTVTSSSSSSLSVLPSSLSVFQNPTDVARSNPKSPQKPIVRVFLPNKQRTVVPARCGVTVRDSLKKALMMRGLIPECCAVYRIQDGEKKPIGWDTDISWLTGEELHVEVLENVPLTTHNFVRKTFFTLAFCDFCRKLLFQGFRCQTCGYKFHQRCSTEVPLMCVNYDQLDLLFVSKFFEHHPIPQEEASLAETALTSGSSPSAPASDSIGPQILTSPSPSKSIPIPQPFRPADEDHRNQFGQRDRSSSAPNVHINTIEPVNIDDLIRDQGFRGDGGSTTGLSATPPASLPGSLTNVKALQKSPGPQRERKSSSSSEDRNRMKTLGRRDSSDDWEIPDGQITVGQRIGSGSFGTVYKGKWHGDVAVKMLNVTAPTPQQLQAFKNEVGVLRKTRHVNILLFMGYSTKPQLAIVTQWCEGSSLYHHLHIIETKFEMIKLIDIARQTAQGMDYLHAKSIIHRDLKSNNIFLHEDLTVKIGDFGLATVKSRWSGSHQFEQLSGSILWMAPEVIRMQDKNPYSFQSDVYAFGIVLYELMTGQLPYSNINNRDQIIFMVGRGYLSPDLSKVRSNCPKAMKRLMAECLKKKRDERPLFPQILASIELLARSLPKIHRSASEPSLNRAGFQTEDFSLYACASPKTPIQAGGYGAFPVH
T2 sequence (P04049 whole entry): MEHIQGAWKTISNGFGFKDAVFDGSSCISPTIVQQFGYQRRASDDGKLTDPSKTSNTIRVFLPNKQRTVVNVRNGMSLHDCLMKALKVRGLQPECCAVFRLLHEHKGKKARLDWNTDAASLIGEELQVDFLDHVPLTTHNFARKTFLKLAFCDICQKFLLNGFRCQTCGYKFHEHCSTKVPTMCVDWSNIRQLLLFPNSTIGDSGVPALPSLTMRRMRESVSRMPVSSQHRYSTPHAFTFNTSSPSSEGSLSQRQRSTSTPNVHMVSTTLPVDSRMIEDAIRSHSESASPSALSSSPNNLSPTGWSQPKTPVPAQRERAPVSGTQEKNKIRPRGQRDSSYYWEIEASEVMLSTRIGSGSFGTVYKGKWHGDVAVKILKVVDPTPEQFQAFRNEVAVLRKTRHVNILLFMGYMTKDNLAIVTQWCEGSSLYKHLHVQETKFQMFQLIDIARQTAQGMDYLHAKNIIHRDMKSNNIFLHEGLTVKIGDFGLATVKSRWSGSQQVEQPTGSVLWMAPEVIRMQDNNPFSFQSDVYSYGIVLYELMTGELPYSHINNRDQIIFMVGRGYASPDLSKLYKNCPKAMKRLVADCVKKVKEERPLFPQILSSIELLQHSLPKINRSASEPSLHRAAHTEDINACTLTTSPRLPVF
Sequence of Tyrosine-protein kinase Lck (Homo sapiens) (P06239 2-509 limits assumed): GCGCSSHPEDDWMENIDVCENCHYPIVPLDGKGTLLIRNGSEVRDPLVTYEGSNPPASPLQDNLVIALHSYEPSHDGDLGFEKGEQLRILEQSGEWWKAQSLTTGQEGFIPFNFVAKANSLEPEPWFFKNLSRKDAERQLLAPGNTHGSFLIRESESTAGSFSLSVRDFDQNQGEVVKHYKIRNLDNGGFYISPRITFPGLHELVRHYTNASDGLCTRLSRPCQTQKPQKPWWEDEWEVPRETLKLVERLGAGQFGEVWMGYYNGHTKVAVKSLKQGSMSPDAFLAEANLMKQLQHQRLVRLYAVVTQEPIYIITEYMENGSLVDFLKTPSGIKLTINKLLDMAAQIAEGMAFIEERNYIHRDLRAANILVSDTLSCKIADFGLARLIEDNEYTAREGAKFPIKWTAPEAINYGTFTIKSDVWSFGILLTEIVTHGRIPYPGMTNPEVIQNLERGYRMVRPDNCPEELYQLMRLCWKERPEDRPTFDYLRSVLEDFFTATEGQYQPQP
Sequence of Insulin-like growth factor 1 receptor (Homo sapiens) (P08069 31-736 limits assumed): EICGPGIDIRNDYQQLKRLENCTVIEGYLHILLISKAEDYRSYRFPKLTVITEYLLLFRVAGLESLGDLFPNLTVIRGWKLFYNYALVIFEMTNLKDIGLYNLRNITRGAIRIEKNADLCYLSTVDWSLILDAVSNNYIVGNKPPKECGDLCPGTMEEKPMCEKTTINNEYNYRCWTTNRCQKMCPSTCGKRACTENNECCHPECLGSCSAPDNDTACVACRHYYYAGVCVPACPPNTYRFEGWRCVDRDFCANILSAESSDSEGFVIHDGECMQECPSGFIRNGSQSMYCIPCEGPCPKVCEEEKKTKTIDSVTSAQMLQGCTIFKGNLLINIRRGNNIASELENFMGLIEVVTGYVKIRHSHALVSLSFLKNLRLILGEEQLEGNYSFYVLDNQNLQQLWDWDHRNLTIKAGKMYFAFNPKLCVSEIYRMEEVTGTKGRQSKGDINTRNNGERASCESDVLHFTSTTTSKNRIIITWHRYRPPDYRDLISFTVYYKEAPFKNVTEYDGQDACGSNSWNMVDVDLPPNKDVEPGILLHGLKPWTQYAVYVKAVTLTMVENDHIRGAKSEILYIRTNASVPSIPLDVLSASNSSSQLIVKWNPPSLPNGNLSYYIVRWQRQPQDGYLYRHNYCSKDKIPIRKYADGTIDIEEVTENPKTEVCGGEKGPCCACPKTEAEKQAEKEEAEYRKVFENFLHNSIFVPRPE
Sequence of Insulin-like growth factor 1 receptor (Homo sapiens) (P08069 741-1367 limits assumed): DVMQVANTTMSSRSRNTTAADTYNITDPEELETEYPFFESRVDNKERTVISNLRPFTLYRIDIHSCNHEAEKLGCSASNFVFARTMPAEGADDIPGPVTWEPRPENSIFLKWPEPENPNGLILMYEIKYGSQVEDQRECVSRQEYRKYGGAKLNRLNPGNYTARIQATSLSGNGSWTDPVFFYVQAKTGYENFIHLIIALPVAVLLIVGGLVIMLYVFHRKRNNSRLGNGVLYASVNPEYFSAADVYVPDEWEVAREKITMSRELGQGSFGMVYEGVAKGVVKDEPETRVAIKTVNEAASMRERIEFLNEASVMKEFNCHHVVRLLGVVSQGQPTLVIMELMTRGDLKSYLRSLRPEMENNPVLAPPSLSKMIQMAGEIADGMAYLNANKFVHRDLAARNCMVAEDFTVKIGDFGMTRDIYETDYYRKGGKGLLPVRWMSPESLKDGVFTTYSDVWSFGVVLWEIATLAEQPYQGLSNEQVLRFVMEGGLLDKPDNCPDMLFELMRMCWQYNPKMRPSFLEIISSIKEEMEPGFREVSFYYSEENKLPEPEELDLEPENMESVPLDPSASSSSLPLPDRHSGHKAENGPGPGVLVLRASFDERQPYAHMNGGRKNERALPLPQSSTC
Sequence of Serine/threonine-protein kinase B-raf (Homo sapiens), P15056 [V600E] (P15056 whole entry V600E): as the sequence (P15056 whole entry) above, with V600E counted along it
Sequence of Proto-oncogene tyrosine-protein kinase Src (Homo sapiens) (P12931 2-536 limits assumed): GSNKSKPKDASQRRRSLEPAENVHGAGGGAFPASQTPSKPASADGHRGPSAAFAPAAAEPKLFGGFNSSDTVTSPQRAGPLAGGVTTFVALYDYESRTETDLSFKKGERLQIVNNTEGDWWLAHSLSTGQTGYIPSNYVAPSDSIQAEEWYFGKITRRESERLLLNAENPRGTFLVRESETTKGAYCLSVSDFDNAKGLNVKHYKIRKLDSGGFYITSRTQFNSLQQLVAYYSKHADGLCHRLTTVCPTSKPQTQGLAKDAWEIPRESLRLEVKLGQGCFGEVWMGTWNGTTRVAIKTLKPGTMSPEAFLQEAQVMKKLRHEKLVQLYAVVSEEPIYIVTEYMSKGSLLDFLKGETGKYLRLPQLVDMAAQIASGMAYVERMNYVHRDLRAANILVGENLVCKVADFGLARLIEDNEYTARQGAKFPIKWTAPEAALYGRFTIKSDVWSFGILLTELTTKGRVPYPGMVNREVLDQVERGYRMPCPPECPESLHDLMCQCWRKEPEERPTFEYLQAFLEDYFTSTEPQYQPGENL
Sequence of Fibroblast growth factor receptor 3 (Homo sapiens) (P22607 23-806 limits assumed): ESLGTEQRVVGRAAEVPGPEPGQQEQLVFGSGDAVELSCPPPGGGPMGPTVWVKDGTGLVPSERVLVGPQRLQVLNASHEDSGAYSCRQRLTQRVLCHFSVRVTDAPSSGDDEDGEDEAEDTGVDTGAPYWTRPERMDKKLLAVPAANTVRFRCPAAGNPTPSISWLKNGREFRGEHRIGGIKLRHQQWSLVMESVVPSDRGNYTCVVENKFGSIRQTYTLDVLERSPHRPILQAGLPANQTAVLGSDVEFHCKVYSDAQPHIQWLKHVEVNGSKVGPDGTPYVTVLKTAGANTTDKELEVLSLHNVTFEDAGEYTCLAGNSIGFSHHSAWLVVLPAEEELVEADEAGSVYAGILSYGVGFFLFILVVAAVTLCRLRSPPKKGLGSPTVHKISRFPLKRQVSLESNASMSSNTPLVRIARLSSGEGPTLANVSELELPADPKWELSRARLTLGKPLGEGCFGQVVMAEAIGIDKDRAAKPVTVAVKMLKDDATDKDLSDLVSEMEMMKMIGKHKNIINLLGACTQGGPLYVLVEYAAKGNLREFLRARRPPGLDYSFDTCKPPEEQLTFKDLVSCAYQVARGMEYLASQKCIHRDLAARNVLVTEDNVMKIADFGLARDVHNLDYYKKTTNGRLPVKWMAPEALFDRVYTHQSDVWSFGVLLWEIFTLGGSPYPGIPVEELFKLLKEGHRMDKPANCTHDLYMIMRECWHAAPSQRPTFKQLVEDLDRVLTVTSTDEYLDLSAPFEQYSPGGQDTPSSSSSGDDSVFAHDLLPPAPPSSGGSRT

C[C@H](O)CNc1nccc(-n2ccnc2Cc2cccc(NC(=O)Nc3ccc(Cl)c(C(F)(F)F)c3)c2)n1
inhibition [1]: 17.6%
inhibition [2]: 0%
IC50 [3]: 571 nM
inhibition [4]: 34.5%
inhibition [5]: 4.9%
inhibition [6]: 5.8%
inhibition [7]: 68.4%
inhibition [8]: 0.73%
IC50 [9]: 8.79 nM
inhibition [10]: 9.9%
inhibition [11]: 98.7%
inhibition (Homo sapiens): 0%
inhibition [12]: 0%
inhibition [13]: 6.9%
inhibition [14]: 0%
IC50 [15]: 186 nM
inhibition [16]: 33.6%
inhibition [17]: 34.8%
inhibition [18]: 8.1%
inhibition [19]: 99.9%
inhibition [20]: 0%
inhibition [21]: 12.9%
GI50 [22]: 2730 nM
inhibition [23]: 96.1%
inhibition [24]: 0%
inhibition [25]: 3.5%
inhibition [26]: 2.1%
inhibition [27]: 17.6%
inhibition [28]: 0%
inhibition [29]: 0%
inhibition [30]: 0%
IC50 [31]: 38.3 nM
GI50 [32]: 1820 nM
inhibition [33]: 94.3%
inhibition [34]: 1.2%
inhibition [35]: 0.42%
inhibition [36]: 63.8%
inhibition [37]: 0%
